Laboratory results as given in US10870638B2, “Pyridazinone compound or its salt, and herbicide containing it” (ISHIHARA SANGYO KAISHA, LTD., priority 2016, dated 2020).

What was measured:
Assay in all cases: Test Example 1: foliar treatment, growth inhibition rate on 14th day
Assay type in all cases: in vivo
Settings in all cases: active ingredient amount 31 g/ha, 14th day after application
[1] = tested on: barnyardgrass (Echinochloa crus-qalli L.)
From the text: (§1) Upland field soil was put into a 1/300,000 hectare pot, and seeds of various plants were sown. When the respective plants reached predetermined leaf stage ((1) barnyardgrass (Echinochloa crus-[…].): 0.5 to 2.9 leaf stage, (2) crabgrass (Digitaria sanquinalis L.): 0.5 to 3.0 leaf stage, (3) green foxtail (Setaria viridis L.): 0.5 to 3.2 leaf stage, (4) wild oat (Avena fatua L.): 0.4 to 1.2 leaf stage, (5) italian ryegrass (Lolium multiflorum Lam.): 0.4 to 2.0 leaf stage, (6) redroot pigweed (Amaranthus retroflexus L.): cotyledon stage to 2.2 leaf stage, (7) rice (Oryza sativa L.): 0.2 to 2.7 leaf stage, (8) corn (Zea mays L.): 1.7 to 3.6 leaf stage, (9) wheat (Triticum aestivum L.): 1.3 to 2.3 leaf stage, (10) soybean (Glycine max Merr.); primary leaf stage), wettable powders or emulsifiable concentrates of the compounds of the present invention prepared in accordance with a conventional preparation method, were weighed so as to achieve the prescribed active ingredient amounts, and diluted with water in an amount corresponding to 1,000 liters per 1 hectare (containing 0.1 vol % of an agricultural spreader (surfactant WK manufactured by MARUWA BIOCHEMICAL Co., Ltd.)), and the spray solutions thus prepared were applied for foliar treatment by a small sprayer. On the 14th day after the application, the state of growth of the respective plants was visually observed, and the herbicidal effect was evaluated by a growth inhibition rate (%) of 0 (equivalent to the non-treated area) to 100 (complete kill).

corn (Zea mays L.) = tested on: corn (Zea mays L.)
From the text: as §1

[2] = tested on: crabgrass (Digitaria sanquinalis L.)
From the text: as §1

[3] = tested on: green foxtail (Setaria viridis L.)
From the text: as §1

[4] = tested on: italian ryegrass (Lolium multiflorum Lam.)
From the text: as §1

[5] = tested on: redroot pigweed (Amaranthus retroflexus L.)
From the text: as §1

rice (Oryza sativa L.) = tested on: rice (Oryza sativa L.)
From the text: as §1

[6] = tested on: soybean (Glycine max Merr.)
From the text: as §1

[7] = tested on: wheat (Triticum aestivum L.)
From the text: as §1

[8] = tested on: wild oat (Avena fatua L.)
From the text: as §1

[9] = visual, 0 = non-treated, 100 = complete kill

SMILES	Growth inhibition rate (%) Barnyardgrass [1]	Growth inhibition rate (%) Corn (corn (Zea mays L.))	Growth inhibition rate (%) Crabgrass [2]	Growth inhibition rate (%) Green foxtail [3]	Growth inhibition rate (%) Italian ryegrass [4]	Growth inhibition rate (%) Redroot pigweed [5]	Growth inhibition rate (%) Rice (rice (Oryza sativa L.))	Growth inhibition rate (%) Soybean [6]	Growth inhibition rate (%) Wheat [7]	Growth inhibition rate (%) Wild oat [8]	Growth inhibition rate (%) Barnyardgrass [1, 9]	Growth inhibition rate (%) Corn (corn (Zea mays L.); [9])	Growth inhibition rate (%) Crabgrass [2, 9]	Growth inhibition rate (%) Green foxtail [3, 9]	Growth inhibition rate (%) Italian ryegrass [4, 9]	Growth inhibition rate (%) Redroot pigweed [5, 9]	Growth inhibition rate (%) Rice (rice (Oryza sativa L.); [9])	Growth inhibition rate (%) Soybean [6, 9]	Growth inhibition rate (%) Wheat [7, 9]	Growth inhibition rate (%) Wild oat [8, 9]
Cc1ccc(Oc2cnc3cc(Cl)ccc3n2)cc1-c1c(OC(=O)c2cn(C)nc2C)c(C)nn(C)c1=O [Compound 3-43]	100%	40%	98%	100%	98%	0%	80%	10%	95%	98%	–	–	–	–	–	–	–	–	–	–
Cc1ccc(Oc2cnc3cc(Cl)ccc3n2)cc1-c1c(OC(=O)N(C)C)c(C)nn(C)c1=O [Compound 3-65]	–	–	–	–	–	–	–	–	–	–	100%	40%	83%	99%	85%	0%	0%	10%	98%	75%
CCCCC(=O)Oc1c(C)nn(C)c(=O)c1-c1cc(Oc2cnc3cc(Cl)ccc3n2)ccc1C [Compound 3-36]	100%	40%	99%	99%	99%	0%	90%	40%	99%	99%	–	–	–	–	–	–	–	–	–	–
Cc1ccc(Oc2cnc3cc(Cl)ccc3n2)cc1-c1c(OCC#N)c(C)nn(C)c1=O [Compound 3-78]	–	–	–	–	–	–	–	–	–	–	99%	0%	93%	98%	10%	0%	0%	0%	0%	40%
CC(=O)Oc1c(C(F)(F)F)nn(C)c(=O)c1-c1cc(Oc2ncc(C(F)(F)F)cc2Cl)ccc1C [1-142]	90%	50%	88%	40%	20%	20%	15%	40%	20%	85%	–	–	–	–	–	–	–	–	–	–
CC(=O)Oc1c(C)nn(C)c(=O)c1-c1cc(Oc2ncc3cc(Br)ccc3n2)ccc1C [Compound 2-123]	90%	0%	10%	83%	0%	0%	50%	0%	90%	10%	–	–	–	–	–	–	–	–	–	–
CCOC(=O)OC(C)Oc1c(C)nn(C)c(=O)c1-c1cc(Oc2ncc(C(F)(F)F)cc2Cl)ccc1C (centres unmarked) [1-131]	100%	80%	100%	93%	83%	0%	30%	0%	60%	93%	–	–	–	–	–	–	–	–	–	–
Cc1ccc(Oc2nc3cc(F)ccc3o2)cc1-c1c(O)cnn(C)c1=O [Compound 2-184]	95%	40%	95%	99%	35%	0%	60%	30%	10%	30%	–	–	–	–	–	–	–	–	–	–
Cc1ccc(Oc2nc3cccc(Cl)c3o2)cc1-c1c(O)cnn(C)c1=O [Compound 2-185]	93%	10%	85%	88%	0%	0%	0%	20%	0%	0%	–	–	–	–	–	–	–	–	–	–
Cc1ccc(Oc2nc3ccccc3o2)cc1-c1c(O)c(C)nn(C)c1=O [Compound 2-104]	85%	10%	60%	70%	30%	10%	10%	10%	20%	35%	–	–	–	–	–	–	–	–	–	–
Cc1ccc(Oc2cnc3cc(Cl)ccc3n2)cc1-c1c(OC(=O)c2ccccc2)c(C)nn(C)c1=O [Compound 3-38]	100%	30%	100%	100%	99%	20%	80%	25%	98%	98%	–	–	–	–	–	–	–	–	–	–
CC(=O)Oc1c(C)nn(C)c(=O)c1-c1cc(N(C)c2ncc(C(F)(F)F)cc2Cl)ccc1C [1-145]	93%	40%	90%	70%	20%	0%	0%	35%	50%	40%	–	–	–	–	–	–	–	–	–	–
CC(=O)Oc1c(C)nn(C)c(=O)c1-c1cc(Oc2ncc(Cl)cc2C(F)(F)F)ccc1C [Compound 2-125]	100%	90%	90%	50%	93%	0%	70%	0%	50%	90%	–	–	–	–	–	–	–	–	–	–
Cc1ccc(Oc2cnc3cc(Cl)ccc3n2)cc1-c1c(OC(=O)C(C)(C)C)c(C)nn(C)c1=O [Compound 3-42]	100%	30%	20%	98%	95%	10%	60%	0%	20%	100%	–	–	–	–	–	–	–	–	–	–
